Structures are written as SMILES.

In the assay the target is T1, hSOS1 (hSOS1-mediated loading of hK-RasG12C-GDP) (Homo sapiens, UniProt Q07889).
T1 construct: hSOS1 (amino acid 564-1049); made in house; host or cells: E. coli BL21 (DE3)
T1 sequence (Q07889 with tags, fused parts or gaps): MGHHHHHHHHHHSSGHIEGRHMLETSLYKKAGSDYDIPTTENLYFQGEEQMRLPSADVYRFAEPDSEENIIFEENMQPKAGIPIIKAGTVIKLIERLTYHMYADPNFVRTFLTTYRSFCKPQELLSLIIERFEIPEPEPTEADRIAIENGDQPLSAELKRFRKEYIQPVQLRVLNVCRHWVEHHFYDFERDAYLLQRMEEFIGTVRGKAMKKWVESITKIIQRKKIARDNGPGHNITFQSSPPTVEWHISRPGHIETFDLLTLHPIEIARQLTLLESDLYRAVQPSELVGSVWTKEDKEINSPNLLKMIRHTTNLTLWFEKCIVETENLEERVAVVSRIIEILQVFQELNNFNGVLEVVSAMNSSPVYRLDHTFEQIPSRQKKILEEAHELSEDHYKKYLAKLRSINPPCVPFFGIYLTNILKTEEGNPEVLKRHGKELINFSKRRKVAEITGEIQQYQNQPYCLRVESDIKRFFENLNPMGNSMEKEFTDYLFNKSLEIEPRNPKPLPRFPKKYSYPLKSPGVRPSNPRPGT
The experiment in a line: Biochemical Assay 3: hK-RasG12C activation assay by hSOS1 (loading with fluorescent GTP analog, HTRF). As to conditions: no GTP.
In turn, `Cc1nc(N[C@H](C)c2cccc(Br)c2)c2cc(OCCCN(C)C)ncc2n1` [Example 70, N-[(1R)-1-(3-bromophenyl)ethyl]-6-[3-(dimethylamino)propoxy]-2-methylpyrido[3,4-d]pyrimidin-4-amine] showed a 50% inhibitory concentration (IC50) of 1340 nM. `Cc1nc(NC(C)c2ccc(-c3ccccc3CN(C)C)s2)c2cc(N3CCC3)ncc2n1` (stereo not drawn) [Example 71, 6-(azetidin-1-yl)-N-[1-(5-{2-[(dimethylamino)methyl]phenyl}thiophen-2-yl)ethyl]-2-methylpyrido[3,4-d]pyrimidin-4-amine] came in with a half-maximal inhibitory concentration (IC50) of 82.5 nM. Against the preceding compound, the IC50 is about 16-fold lower. Under `Cc1nc(NC(C)c2ccc(-c3ccccc3CN(C)C)s2)c2cc(OCCCN(C)C)ncc2n1` (stereo not drawn) [Example 72, N-[1-(5-{2-[(dimethylamino)methyl]phenyl}thiophen-2-yl)ethyl]-6-[3-(dimethylamino)propoxy]-2-methylpyrido[3,4-d]pyrimidin-4-amine] stands 49 nM; under `Cc1nc(NC(C)c2ccc(-c3ccccc3CN(C)C)s2)c2cc(OCC3CC3)ncc2n1` (stereo not drawn) [Example 73, 6-(cyclopropylmethoxy)-N-[1-(5-{2-[(dimethylamino)methyl]phenyl}thiophen-2-yl)ethyl]-2-methylpyrido[3,4-d]pyrimidin-4-amine], 138 nM.

As to `Cc1nc(NC(C)c2ccc(-c3ccccc3CN(C)C)s2)c2cc(OCCO)ncc2n1` (stereo not drawn) [Example 74, 2-[(4-{[1-(5-{2-[(dimethylamino)methyl]phenyl}thiophen-2-yl)ethyl]amino}-2-methylpyrido[3,4-d]pyrimidin-6-yl)oxy]ethanol], the midpoint of inhibition, the IC50, lay at 107 nM. Compound `Cc1nc(N[C@H](C)c2cccc(Br)c2)c2cc(OCC3CC3)ncc2n1` [Example 75, N-[(1R)-1-(3-bromophenyl)ethyl]-6-(cyclopropylmethoxy)-2-methylpyrido[3,4-d]pyrimidin-4-amine] displayed an IC50 of 15200 nM. Under `Cc1nc(NC(C)c2ccc(-c3ccccc3CN(C)C)s2)c2cc(OCCCO)ncc2n1` (stereo not drawn) [Example 76, 3-[(4-{[1-(5-{2-[(dimethylamino)methyl]phenyl}thiophen-2-yl)ethyl]amino}-2-methylpyrido[3,4-d]pyrimidin-6-yl)oxy]propan-1-ol] stands 73 nM. For `Cc1nc(NC(C)c2ccc(-c3ccccc3CN(C)C)s2)c2cc(OC3CCS(=N)(=O)CC3)ncc2n1` (stereo not drawn) [Example 77, N-[1-(5-{2-[(dimethylamino)methyl]phenyl}-2-thienyl)ethyl]-6-[(1-imino-1-oxidohexahydro-1lambda4-thiopyran-4-yl)oxy]-2-methylpyrido[3,4-d]pyrimidin-4-amine] the value was 84.3 nM. Under `Cc1nc(N[C@H](C)c2cccc(Br)c2)c2cc(OCCN(C)C)ncc2n1` [Example 78, N-[(1R)-1-(3-bromophenyl)ethyl]-6-[2-(dimethylamino)ethoxy]-2-methylpyrido[3,4-d]pyrimidin-4-amine] stands 2270 nM; under `Cc1nc(N[C@H](C)c2cccc(Br)c2)c2cc(NCCS(C)(=O)=O)ncc2n1` [Example 83], 1090 nM. With `Cc1nc(N[C@H](C)c2cccc(Br)c2)c2cc(NCCn3ccnc3)ncc2n1` [Example 84, N4-[(1R)-1-(3-bromophenyl)ethyl]-N6-[2-(1H-imidazol-1-yl)ethyl]-2-methylpyrido[3,4-d]pyrimidine-4,6-diamine], the IC50 was 1210 nM. In turn, `Cc1nc(NC(C)c2ccc(-c3ccccc3CN(C)C)s2)c2cc(NCC3CCNC(=O)C3)ncc2n1` (stereo not drawn) [Example 86, 4-{[(4-{[1-(5-{2-[(dimethylamino)methyl]phenyl}thiophen-2-yl)ethyl]amino}-2-methylpyrido[3,4-d]pyrimidin-6-yl)amino]methyl}piperidin-2-one] yielded a 50% inhibitory concentration (IC50) of 144 nM. Compound `Cc1nc(NC(C)c2ccc(-c3ccccc3CN(C)C)s2)c2cc(N3CC(NC(=O)CCCn4c(-c5ccccn5)nc(C)c4C)C3)ncc2n1` (stereo not drawn) [Example 87, N-[1-(4-{[1-(5-{2-[(dimethylamino)methyl]phenyl}thiophen-2-yl)ethyl]amino}-2-methylpyrido[3,4-d]pyrimidin-6-yl)azetidin-3-yl]-4-[4,5-dimethyl-2-(pyridin-2-yl)-1H-imidazol-1-yl]butanamide] displayed a 50% inhibitory concentration (IC50) of 228 nM. Under `Cc1nc(NC(C)c2ccc(-c3ccccc3CN(C)C)s2)c2cc(N3CC(NC(=O)c4ccccc4)C3)ncc2n1` (stereo not drawn) [Example 88, N-[1-(4-{[1-(5-{2-[(dimethylamino)methyl]phenyl}thiophen-2-yl)ethyl]amino}-2-methylpyrido[3,4-d]pyrimidin-6-yl)azetidin-3-yl]benzamide] stands 173 nM.

`Cc1nc(NC(C)c2ccc(-c3ccccc3CN(C)C)s2)c2cc(N3CC(NC(=O)Cc4ccccc4)C3)ncc2n1` (stereo not drawn) [Example 89, N-[1-(4-{[1-(5-{2-[(dimethylamino)methyl]phenyl}thiophen-2-yl)ethyl]amino}-2-methylpyrido[3,4-d]pyrimidin-6-yl)azetidin-3-yl]-2-phenylacetamide] registered an IC50 of 132 nM. For `Cc1nc(NC(C)c2ccc(-c3ccccc3CN(C)C)s2)c2cc(N3CC(NC(=O)C4CCCCC4)C3)ncc2n1` (stereo not drawn) [Example 90, N-[1-(4-{[1-(5-{2-[(dimethylamino)methyl]phenyl}thiophen-2-yl)ethyl]amino}-2-methylpyrido[3,4-d]pyrimidin-6-yl)azetidin-3-yl]cyclohexanecarboxamide] the value was 190 nM; for `Cc1nc(NC(C)c2ccc(-c3ccccc3CN(C)C)s2)c2cc(N3CC(NC(=O)CC4CC4)C3)ncc2n1` (stereo not drawn) [Example 91, 2-cyclopropyl-N-[1-(4-{[1-(5-{2-[(dimethylamino)methyl]phenyl}thiophen-2-yl)ethyl]amino}-2-methylpyrido[3,4-d]pyrimidin-6-yl)azetidin-3-yl]acetamide], 179 nM; for `Cc1nc(NC(C)c2ccc(-c3ccccc3CN(C)C)s2)c2cc(N3CC(N)C3)ncc2n1` (stereo not drawn) [Example 93, 6-(3-aminoazetidin-1-yl)-N-[1-(5-{2-[(dimethylamino)methyl]phenyl}thiophen-2-yl)ethyl]-2-methylpyrido[3,4-d]pyrimidin-4-amine], 82.9 nM. Under `Cc1nc(NC(C)c2ccc(-c3ccccc3CN(C)C)s2)c2cc(N3CC(NS(=O)(=O)c4ccccc4)C3)ncc2n1` (stereo not drawn) [Example 94, N-[1-(4-{[1-(5-{2-[(dimethylamino)methyl]phenyl}thiophen-2-yl)ethyl]amino}-2-methylpyrido[3,4-d]pyrimidin-6-yl)azetidin-3-yl]benzenesulfonamide] stands 170 nM; under `Cc1nc(NC(C)c2ccc(-c3ccccc3CN(C)C)s2)c2cc(N3CC(NS(=O)(=O)Cc4ccccc4)C3)ncc2n1` (stereo not drawn) [Example 95, N-[1-(4-{[1-(5-{2-[(dimethylamino)methyl]phenyl}thiophen-2-yl)ethyl]amino}-2-methylpyrido[3,4-d]pyrimidin-6-yl)azetidin-3-yl]-1-phenylmethanesulfonamide], 204 nM. Regarding `Cc1nc(NC(C)c2ccc(-c3ccccc3CN(C)C)s2)c2cc(N3CC(NC(=O)Nc4ccccc4)C3)ncc2n1` (stereo not drawn) [Example 96, 1-[1-(4-{[1-(5-{2-[(dimethylamino)methyl]phenyl}thiophen-2-yl)ethyl]amino}-2-methylpyrido[3,4-d]pyrimidin-6-yl)azetidin-3-yl]-3-phenylurea], the IC50 stood at 206 nM.

The values above are taken from patent US20220274979A1 (Bayer Pharma Aktiengesellschaft, priority 2018, published 2022).
